Measured values reported in ChEMBL document CHEMBL1124623, “2,4-Diamino-5-benzylpyrimidines and analogues as antibacterial agents. 12. 1,2-Dihydroquinolylmethyl analogues with high activity and specificity for bacterial dihydrofolate reductase” (J Med Chem, 1989).
≈ marks a conversion by molar mass, not a printed value.

Tests used:
Staphylococcus aureus = test: Comparative in vitro antibacterial activity of compound with trimethoprim against Staphylococcus aureus CN491; assay type: functional
Streptococcus agalactiae [1] = test: Comparative in vitro antibacterial activity of compound with trimethoprim against Streptococcus agalactiae CN1143; assay type: functional
Proteus vulgaris [2] = test: Comparative in vitro antibacterial activity of compound with trimethoprim against Proteus vulgaris CN329 on different day; assay type: functional
Streptococcus pyogenes [3] = test: Comparative in vitro antibacterial activity of compound with trimethoprim against Streptococcus pyogenes CN10 on different day; assay type: functional
[4] = Comparative in vitro antibacterial activity of compound with trimethoprim against Salmonella typhi CN512 on different day; assay type: functional, salmonella typhosa
Klebsiella aerogenes [5] = test: Comparative in vitro antibacterial activity of compound with trimethoprim against Enterobacter aerogenes 2200/86; assay type: functional
Escherichia coli [6] = test: Comparative in vitro antibacterial activity of compound with trimethoprim against Escherichia coli CN314 on different day; assay type: functional
Streptococcus agalactiae [7] = test: Comparative in vitro antibacterial activity of compound with trimethoprim against Streptococcus agalactiae CN1143 on different day; assay type: functional
Proteus vulgaris [8] = test: Comparative in vitro antibacterial activity of compound with trimethoprim against Proteus vulgaris CN329; assay type: functional
Salmonella typhimurium [9] = test: Comparative in vitro antibacterial activity of compound with trimethoprim against Salmonella Typhimurium S 8587 on different day; assay type: functional, Salmonella enterica subsp. enterica serovar Typhimurium; conditions: Salmonella enterica
Shigella flexneri [10] = test: Comparative in vitro antibacterial activity of compound with trimethoprim against Shigella flexneri CN6007 on different day; assay type: functional
Shigella flexneri [11] = test: Comparative in vitro antibacterial activity of compound with trimethoprim against Shigella flexneri CN6007; assay type: functional
Dihydrofolate reductase [12] = biological target: T1, Dihydrofolate reductase (Escherichia coli, UniProt P0ABQ4)
T1 sequence (P0ABQ4 whole entry): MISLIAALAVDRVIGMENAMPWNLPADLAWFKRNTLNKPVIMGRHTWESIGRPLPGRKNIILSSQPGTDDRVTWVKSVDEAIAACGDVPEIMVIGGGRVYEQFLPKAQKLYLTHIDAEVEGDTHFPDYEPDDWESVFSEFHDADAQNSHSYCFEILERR
Description: Apparent binding affinity of compound in Escherichia coli DHFR

Enterococcus faecalis = test: Comparative in vitro antibacterial activity of compound with trimethoprim against Streptococcus faecalis CN478; assay type: functional
Escherichia coli [13] = test: Comparative in vitro antibacterial activity of compound with trimethoprim against Escherichia coli CN314; assay type: functional
Dihydrofolate reductase [14] = biological target: T2, Dihydrofolate reductase (Rattus norvegicus, UniProt Q920D2)
T2 sequence (Q920D2 whole entry): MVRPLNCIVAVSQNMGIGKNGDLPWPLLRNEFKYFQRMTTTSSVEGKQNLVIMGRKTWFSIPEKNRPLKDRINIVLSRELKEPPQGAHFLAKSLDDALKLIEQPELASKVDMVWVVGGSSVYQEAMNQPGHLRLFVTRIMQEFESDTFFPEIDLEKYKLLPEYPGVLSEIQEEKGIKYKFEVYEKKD

Vibrio cholerae = test: Comparative in vitro antibacterial activity of compound with trimethoprim against Vibrio cholerae ATCC 14035; assay type: functional
Klebsiella aerogenes [15] = test: Comparative in vitro antibacterial activity of compound with trimethoprim against Enterobacter aerogenes 2200/86 on different day; assay type: functional
Streptococcus pyogenes [16] = test: Comparative in vitro antibacterial activity of compound with trimethoprim against Streptococcus pyogenes CN10; assay type: functional
Klebsiella pneumoniae [17] = test: Comparative in vitro antibacterial activity of compound with trimethoprim against Klebsiella pneumoniae CN3632; assay type: functional
Klebsiella pneumoniae [18] = test: Comparative in vitro antibacterial activity of compound with trimethoprim against Klebsiella pneumoniae CN3632 on different day; assay type: functional
[19] = Comparative in vitro antibacterial activity of compound with trimethoprim against Salmonella typhi CN512; assay type: functional, salmonella typhosa
Salmonella typhimurium [20] = test: Comparative in vitro antibacterial activity of compound with trimethoprim against Salmonella Typhimurium S 8587; assay type: functional, Salmonella enterica subsp. enterica serovar Typhimurium; conditions: Salmonella enterica
[21] = Dissociation constant of compound at 20 degree C; assay type: physicochemical
Dihydrofolate reductase [22] = biological target: T2, Dihydrofolate reductase; test: Inhibitory activity against Dihydrofolate reductase in rat liver; assay type: functional, tissue-based; conditions: read-out: I50
Dihydrofolate reductase [23] = biological target: T3, Dihydrofolate reductase (Gallus gallus, UniProt P00378); test: Inhibitory activity against Dihydrofolate reductase in chicken; conditions: read-out: I50
T3 sequence (P00378 whole entry): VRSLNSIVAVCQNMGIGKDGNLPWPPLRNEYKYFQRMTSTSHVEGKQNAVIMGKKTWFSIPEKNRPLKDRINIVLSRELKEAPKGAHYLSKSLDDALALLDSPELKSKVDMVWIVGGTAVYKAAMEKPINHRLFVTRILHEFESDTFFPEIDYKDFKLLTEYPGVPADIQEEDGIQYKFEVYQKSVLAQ

Compound	MIC (Staphylococcus aureus) [µg/mL]	MIC (Streptococcus agalactiae [1]) [µg/mL]	MIC (Klebsiella aerogenes [5]) [µg/mL]	MIC (Proteus vulgaris [8]) [µg/mL]	MIC (Shigella flexneri [11]) [µg/mL]	MIC (Enterococcus faecalis) [µg/mL]	MIC (Escherichia coli [13]) [µg/mL]	IC50 (Dihydrofolate reductase [14]) [µM]	MIC (Vibrio cholerae) [µg/mL]	MIC (Streptococcus pyogenes [16]) [µg/mL]	MIC [19] [µg/mL]	MIC (Salmonella typhimurium [20]) [µg/mL]	further results
COc1cc(Cc2cnc(N)nc2N)cc2c1NC(C)(CF)C(F)=C2C (stereo not drawn)	0.001 (≈ 0.00277 µM)	0.1 (≈ 0.277 µM)	1 (≈ 2.77 µM)	3 (≈ 8.3 µM)	3 (≈ 8.3 µM)	0.0001 (≈ 0.000277 µM)	1 (≈ 2.77 µM)	233	3 (≈ 8.3 µM)	0.03 (≈ 0.083 µM)	1 (≈ 2.77 µM)	3 (≈ 8.3 µM)	MIC (Proteus vulgaris [2]): 3 µg/mL (≈ 8.3 µM); MIC (Streptococcus pyogenes [3]): 0.1 ng/mL (≈ 0.000277 µM); MIC [4]: 30 µg/mL (≈ 83 µM); MIC (Escherichia coli [6]): 10 µg/mL (≈ 27.7 µM); MIC (Streptococcus agalactiae [7]): 0.03 µg/mL (≈ 0.083 µM); MIC (Salmonella typhimurium [9]): 3 µg/mL (≈ 8.3 µM); MIC (Shigella flexneri [10]): 0.3 µg/mL (≈ 0.83 µM); Ki (Dihydrofolate reductase [12]): 0.1 nM; MIC (Klebsiella aerogenes [15]): 10 µg/mL (≈ 27.7 µM); MIC (Klebsiella pneumoniae [17]): 10 µg/mL (≈ 27.7 µM); MIC (Klebsiella pneumoniae [18]): 1 µg/mL (≈ 2.77 µM)
CC1=CC(C)(C)Nc2c(C)cc(Cc3cnc(N)nc3N)cc21								500					
CSc1cc(Cc2cnc(N)nc2N)cc2c1NC(C)(C)C=C2C	0.3 (≈ 0.879 µM)	0.3 (≈ 0.879 µM)	10 (≈ 29.3 µM)	> 100	30 (≈ 87.9 µM)	≤ 0.03	10 (≈ 29.3 µM)	118	1 (≈ 2.93 µM)	0.1 (≈ 0.293 µM)	30 (≈ 87.9 µM)	30 (≈ 87.9 µM)	Ki (Dihydrofolate reductase [12]): 0.43 nM; MIC (Klebsiella pneumoniae [17]): 100 µg/mL (≈ 293 µM)
COc1cc(Cc2cnc(N)nc2N)cc2c1NC(C)(CF)C=C2CF (stereo not drawn)	0.3 (≈ 0.83 µM)	0.3 (≈ 0.83 µM)	30 (≈ 83 µM)	10 (≈ 27.7 µM)	10 (≈ 27.7 µM)	0.3 (≈ 0.83 µM)	10 (≈ 27.7 µM)	230	3 (≈ 8.3 µM)	0.1 (≈ 0.277 µM)	10 (≈ 27.7 µM)	3 (≈ 8.3 µM)	MIC (Klebsiella pneumoniae [17]): 10 µg/mL (≈ 27.7 µM)
CCOc1cc(Cc2cnc(N)nc2N)cc2c1NC(C)(C)C=C2C								250					
COc1cc(Cc2cnc(N)nc2N)cc2c1N(C)CCC2C (stereo not drawn)													pKa [21]: 6.51; IC50 (Dihydrofolate reductase [22]): 250 µM
CCN1CCC(C)c2ccccc21 (stereo not drawn)													pKa [21]: 4.18
COc1cc(Cc2cnc(N)nc2N)cc2c1NC(C)(C)CC2C (stereo not drawn)	3 (≈ 9.16 µM)	1 (≈ 3.05 µM)	10 (≈ 30.5 µM)	> 100	30 (≈ 91.6 µM)	1 (≈ 3.05 µM)	30 (≈ 91.6 µM)	430	3 (≈ 9.16 µM)	1 (≈ 3.05 µM)	100 (≈ 305 µM)	30 (≈ 91.6 µM)	
COc1cccc2c1N(C)C(C)(C)C=C2C													pKa [21]: 6.82
CC1=CC(C)(C)Nc2c1cc(Cc1cnc(N)nc1N)cc2[S+](C)[O-] (stereo not drawn)								56					
COc1cc(Cc2cnc(N)nc2N)cc2c1NC(C)(C)C=C2C	0.3 (≈ 0.922 µM)	0.3 (≈ 0.922 µM)	3 (≈ 9.22 µM)	3 (≈ 9.22 µM)	3 (≈ 9.22 µM)	0.1 (≈ 0.307 µM)	3 (≈ 9.22 µM)	300	3 (≈ 9.22 µM)	0.1 (≈ 0.307 µM)	10 (≈ 30.7 µM)	10 (≈ 30.7 µM)	IC50 (Dihydrofolate reductase [23]): 1300 nM; MIC (Klebsiella pneumoniae [17]): 10 µg/mL (≈ 30.7 µM)
CCc1cc(Cc2cnc(N)nc2N)cc2c1NC(C)(C)C=C2C								174					
CC1=CC(C)(C)Nc2c(Cl)cc(Cc3cnc(N)nc3N)cc21	30 (≈ 91 µM)	100 (≈ 303 µM)	300 (≈ 910 µM)	30 (≈ 91 µM)	100 (≈ 303 µM)	300 (≈ 910 µM)	100 (≈ 303 µM)	76	100 (≈ 303 µM)	10 (≈ 30.3 µM)	30 (≈ 91 µM)	30 (≈ 91 µM)	MIC (Klebsiella pneumoniae [17]): 30 µg/mL (≈ 91 µM)
CN1CCCc2ccccc21													pKa [21]: 4.1
CC1=CC(C)(C)Nc2ccccc21													pKa [21]: 3.69
CC1=CC(C)(C)Nc2c1cc(Cc1cnc(N)nc1N)c1cccnc21	0.1 (≈ 0.289 µM)	0.3 (≈ 0.866 µM)	10 (≈ 28.9 µM)	> 100	100 (≈ 289 µM)	0.3 (≈ 0.866 µM)	30 (≈ 86.6 µM)		1 (≈ 2.89 µM)	0.03 (≈ 0.0866 µM)	30 (≈ 86.6 µM)	100 (≈ 289 µM)	MIC (Klebsiella pneumoniae [17]): > 300 µg/mL
COc1cc(Cc2cnc(N)nc2N)cc2c1N(CCOC(C)=O)C(C)(C)C=C2C								164					
COc1cc(Cc2cnc(N)nc2N)cc2c1NCCC2C (stereo not drawn)								33					
CC1=CC(C)(C)Nc2ccc(Cc3cnc(N)nc3N)cc21								240					
COc1cc(Cc2cnc(N)nc2N)cc2c1N(C)C(C)(C)C=C2C								340					
COc1cc(Cc2cnc(N)nc2N)cc2c(C)ccnc12								20					
CC1CC(C)(C)Nc2ccc(Cc3cnc(N)nc3N)cc21 (stereo not drawn)								300					
COc1cccc2c1NC(C)(C)C=C2C													pKa [21]: 3.36
